Experimental data as given in patent US20260286302A1, “METHODS FOR PRODUCING A SUPER CENTRAL MEMORY CD8 T CELL SUBTYPE BY POLY(ADP-RIBOSE) POLYMERASE (PARP) INHIBITION AND USES THEREOF” (Georgetown University, priority 2023, published 2026).

Experiments:
B16F10 tumors = assay: B16F10 tumor model: tumor growth and survival; type: in vivo, mouse
Procedure: C57BL/6J mice were injected with 7×10^4 TC-1 cells per mouse or 1×10^5B16F10 cells per mouse in the right flank. Treatment in respective groups was started when tumors reached an average size of approximately 0.075 cm^3. […] Mice were treated daily with IP injection at a dose of 50 mg kg-1.
For vaccination, TC-1-specific E7 peptide (a nine amino acid peptide, […] (SEQ ID NO: 1); 100 μg per mouse per 100 μl; Celtak Bioscience) or B16-specific gp10025-33 nonamer peptide ([…] (SEQ ID NO: 2); 100 μg per mouse per 100 μl; AnaSpec) were used. Both the vaccines were mixed with a small 13-mer nonnatural pan-HLA DR-binding epitope (PADRE (SEQ ID NO: 3); aK-Cha-[…]a (SEQ ID NO: 4), where ‘a’ is d-alanine, and ‘Cha’ is 1-cyclohexylalanine, T helper epitope, 20 μg per mouse; Celtak Bioscience) and QuilA (adjuvant, 10 μg per mouse; Brenntag). For survival and therapy experiments, mice were vaccinated three times, starting at an average tumor size of 0.07 cm^3, while for immune response experiments mice were vaccinated twice with a one-week interval between vaccinations. Tumors were measured every 3-4 days using a digital vernier caliper, and the tumor volume was calculated using the formula: V=L×W2/2000, where V is tumor volume, L is the length of the tumor (longer diameter) and W is the width of the tumor (shorter diameter). Mice were monitored for tumor growth and survival. Mice were euthanized when the tumor volume reached 1.5 cm^3.

B16F10 = assay: Tumor growth in immune deficient nude mice (B16F10); type: in vivo, mouse
Procedure: The effect of PARPi on direct CD8 T cell-driven anti-tumor immune response remains poorly understood. Therefore, to dissect this effect, the anti-tumor immune effect of PARPi was tested in vivo in tumor models that require T cell priming, which helps delineate the direct effect of the drug on CD8 T cells. […] While 18% and 10% of mice survived in the vaccine-treated and PARPi-treated groups, respectively, in the TC-1 tumor model at day 22, 90% survived when PARPi was added to the vaccine. Similarly, in the B16F10 tumor model, 10% of the mice treated with vaccine alone were alive at day 22, compared to 40% when PARPi was added.

[1] = system: CD8+ T cells in TME of TC-1 tumors; assay: Immune profiling of the TME, TC-1 tumor-bearing mice; type: in vivo, mouse
Text: Two-to-three days after the second vaccination, mice in the various groups were euthanized and tumors were collected.
(§1) A total of 0.1-0.2×10^6 cells per sample were stained for Live/Dead staining followed by fixation and permeabilization. For IFNγ and granzyme B (Gzm B) staining, BD Cytofix/Cytoperm (catalog no. 51-2090KZ) and BD Perm/Wash (catalog no. 51-2091KZ) buffer set were used according to the manufacturer's instructions (BD Pharmingen). CD8^+ T cells from tumor samples were stained similarly. Data acquisition was performed on a BD LSR II flow cytometer using the software FACS Diva v.9.0. Results were analyzed using FlowJo software (TreeStar). MitoFM, a green-fluorescent mitochondrial stain, which localizes to mitochondria, was used as described previously (Sukumar et al., Cell Metab 23 (1): 63-76, 2016).

human CD8 T cells = assay: In vitro-activated human CD8+ T cells, memory characteristics; type: cell-based; conditions: anti-CD3/CD28 coupled beads for 72 h
Procedure: For evaluation of memory characteristics in human CD8+ T cells, naive CD8+ T cells were activated in the presence or absence of PARPi, by Dynabeads™ Human T-Activator CD3/CD28 (Thermo Fisher #11131), […]. Post-activation cells were gated upon CD8^+ T cell population and various characteristics were investigated as described in the Examples below.
as §1
To this end, human naïve CD8 T cells were activated with anti-CD3/CD28 coupled beads for 72 h.

[2] = system: CD8 T cells of patients with recurrent ovarian cancer; assay: PBMC of ovarian cancer patients pre and post treatment; type: in vivo, human
Procedure: Peripheral blood mononuclear cells (PBMCs) were isolated from whole blood collected in cell preparation tubes (CPT) with sodium citrate and viably frozen until analysis. After thawing, PBMCs were washed with flow buffer (5% BSA, 2 mM EDTA in PBS), incubated with Fc receptor blocking reagent (Miltenyi Biotec) and stained with monoclonal antibodies for 20-30 min at 4° C. For staining for Ki-67 and Granzyme B, cells were fixed and permeabilized using a Fix/Perm buffer (eBiosciences) according to the manufacturer's instructions. Dead cells were excluded from the analysis by using the viability dye, LIVE/DEAD Fixable (Life Technologies). All assays were performed using multiparametric flow cytometry (MACSQuant; Miltenyi Biotec). Data were analyzed using FlowJo software v.10.6.1 (FlowJo, LLC). Flow cytometric data were quantified either as the median fluorescence intensity or as a percentage of cells, as indicated.

NAD = NAD accumulation assay; type: cell-based, mouse; conditions: activated pMel-1 CD8 T cells, 48 h
Procedure: pMel-1 CD8 T cells were activated with gp100 in the presence or absence of PARPi for 48 h. Cells were washed with cold PBS and pelleted in a microcentrifuge tube by centrifuging at 2,000 rpm for 5 minutes. Cells were lysed with 400 μL of NADH/NAD extraction buffer and then centrifuged at 13,000 g for 10 minutes to remove insoluble material. The supernatants were collected and the levels of NAD in the cell lysates were estimated using the NAD/NADH Quantitation Kit according to the manufacturing kit (Millipore NAD/NADH Quantification Kit Sigma #MAK037).

O=C(c1cc(Cc2n[nH]c(=O)c3ccccc23)ccc1F)N1CCN(C(=O)C2CC2)CC1 [olaparib]
tumor growth and survival, enhancement of anti-tumor immune response of the vaccine (B16F10 tumors; B16F10, PARPi 50 mg/kg IP daily in combination with gp100 vaccine): significantly retarding tumor growth and prolonging survival
mice alive (B16F10 tumors; B16F10 tumor model, day 22, PARPi added to the vaccine (gp100)): 40%
single agent effect (B16F10 tumors; B16 model, PARPi alone): no single agent effect
tumor growth (B16F10): did not affect tumor growth
number of total and antigen-specific CD8+ T cells in TME ([1]; TC1, vaccinated in the presence of PARPi vs either treatment alone): significant increase
IFNγ+ and granzyme B+ total and antigen-specific CD8+ T cells ([1]; TC-1, PARPi given with the vaccine): enhanced functionality
CD44hiCD62Lhi CD8 T cells within the TCM compartment in the TME ([1]; TC-1, PARPi in combination with vaccine): appearance of a distinct population
vaccine-induced total and antigen-specific effector (TEM) and central memory (TCM) CD8 T cells in the TME ([1]; TC-1, PARPi with vaccine): increased
proliferation of CD8 T cells as determined by Ki67 expression ([1]; TC-1 TME): significant decrease
IFNγ expression (human CD8 T cells): significant increase
number of CD45ROhiCCR7hi cells (human CD8 T cells): significant increase
number of CD45ROhiCD62Lhi cells (human CD8 T cells): significant increase
frequency of Ki67+ CD8 T cells ([2]; olaparib plus anti-PDL1 (Durvalumab), pre vs post treatment): decrease
CD62L expression in TCM CD8 T cells ([2]; olaparib plus anti-PDL1 (Durvalumab), some patients): increased
patients with an increase in TCM CD8 T cells ([2]; ovarian cancer patients treated with olaparib plus anti-PDL1 (Durvalumab), pre vs post treatment): 63%
accumulation of NAD (NAD): significantly enhanced
